Patent US11084800B2 (Achillion Pharmaceuticals, Inc., priority 2017, dated 2021)

biological target: Human Factor D (Homo sapiens (Human), UniProt P00746); assay: Human Factor D Assay; assay type: biochemical; conditions: Factor D inhibition, assay of Example 10; read-out: IC5 (Stars)
Outline: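 Serum-purified Factor D (80 nM final) preincubated 5 min at room temperature with compound in 50 mM Tris, 1 M NaCl, pH 7.5. Z-L-Lys-SBz and DTNB added at 100 μM each; A405 followed every 30 s for 30 min. IC50 from nonlinear regression of rates versus concentration.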

Sequence of Human Factor D (P00746 26-253): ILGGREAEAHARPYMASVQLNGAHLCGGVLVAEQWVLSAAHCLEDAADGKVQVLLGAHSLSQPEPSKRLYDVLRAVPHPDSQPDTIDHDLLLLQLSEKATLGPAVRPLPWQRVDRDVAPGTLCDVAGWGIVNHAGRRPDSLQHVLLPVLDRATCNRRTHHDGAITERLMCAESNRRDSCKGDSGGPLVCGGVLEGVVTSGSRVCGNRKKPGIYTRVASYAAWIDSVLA

| SMILES | IC50 |
| --- | --- |
| CC(=O)c1cn(CC(=O)N2[C@H](C(=O)Nc3nc(Br)ccc3C)C[C@@]3(C)C[C@@H]23)c2c(C)cc(-c3cnc(C)nc3)cc12 [Compound 426, (1R,3S,5R)-2-(2-(3-acetyl-7-methyl-5-(2-methylpyrimidin-5-yl)-1H-indol-1-yl)acetyl)-N-(6-bromo-3-methylpyridin-2-yl)-5-methyl-2-azabicyclo[3.1.0]hexane-3-carboxamide] | < 1000 nM |
| CC(=O)c1nn(CC(=O)N2[C@H](C(=O)NCc3cccc(Cl)c3F)C[C@@]3(Cc4nc(C)no4)C[C@@H]23)c2c(C)cc(-c3cnc(C)nc3)cc12 [Compound 427, (1R,3S,5R)-2-(2-(3-acetyl-7-methyl-5-(2-methylpyrimidin-5-yl)-1H-indazol-1-yl)acetyl)-N-(3-chloro-2-fluorobenzyl)-5-((3-methyl-1,2,4-oxadiazol-5-yl)methyl)-2-azabicyclo[3.1.0]hexane-3-carboxamide] | < 1000 nM |
| CC(=O)c1nn(CC(=O)N2[C@H](C(=O)Nc3nc(Br)ccc3Cl)C[C@@]3(Cc4nc(C)no4)C[C@@H]23)c2c(C)cc(-c3cnc(C)nc3)cc12 [Compound 428, (1R,3S,5R)-2-(2-(3-acetyl-7-methyl-5-(2-methylpyrimidin-5-yl)-1H-indazol-1-yl)acetyl)-N-(6-bromo-3-chloropyridin-2-yl)-5-((3-methyl-1,2,4-oxadiazol-5-yl)methyl)-2-azabicyclo[3.1.0]hexane-3-carboxamide] | < 1000 nM |
| CC(=O)c1nn(CC(=O)N2[C@H](C(=O)Nc3nc(Br)ccc3C)C[C@@]3(Cc4nnc(C)o4)C[C@@H]23)c2c(CF)cc(-c3cnc(C)nc3)cc12 [Compound 429, (1R,3S,5R)-2-(2-(3-acetyl-7-(fluoromethyl)-5-(2-methylpyrimidin-5-yl)-1H-indazol-1-yl)acetyl)-N-(6-bromo-3-methylpyridin-2-yl)-5-((5-methyl-1,3,4-oxadiazol-2-yl)methyl)-2-azabicyclo[3.1.0]hexane-3-carboxamide] | < 1000 nM |
| CC(=O)c1nn(CC(=O)N2C[C@](C)(F)C[C@H]2C(=O)Nc2nc(Br)ccc2C)c2ccc(-c3cnc(C)nc3)cc12 [Compound 430, (2S,4R)-1-{2-[3-Acetyl-5-(2-methylpyrimidin-5-yl)indazol-1-yl]acetyl}-N-(6-bromo-3-methylpyridin-2-yl)-4-fluoro-4-methylpyrrolidine-2-carboxamide] | < 1000 nM |
| Cc1ncc(-c2cc3c(C(N)=O)nn(CC(=O)N4[C@H](C(=O)Nc5nc(Br)c(F)cc5C)C[C@@]5(C)C[C@@H]45)c3c(C)n2)cn1 [Compound 431, 1-(2-((1R,3S,5R)-3-((6-bromo-5-fluoro-3-methylpyridin-2-yl)carbamoyl)-5-methyl-2-azabicyclo[3.1.0]hexan-2-yl)-2-oxoethyl)-7-methyl-5-(2-methylpyrimidin-5-yl)-1H-pyrazolo[3,4-c]pyridine-3-carboxamide] | < 1000 nM |
| CC(=O)c1nn(CC(=O)N2C[C@](C)(F)C[C@H]2C(=O)Nc2nc(Br)ccc2C)c2c(C)nc(-c3cnc(C)nc3)cc12 [Compound 432, (2S,4R)-1-(2-(3-acetyl-7-methyl-5-(2-methylpyrimidin-5-yl)-1H-pyrazolo[3,4-c]pyridin-1-yl)acetyl)-N-(6-bromo-3-methylpyridin-2-yl)-4-fluoro-4-methylpyrrolidine-2-carboxamide] | < 1000 nM |
| CC(=O)c1nn(CC(=O)N2C[C@](C)(F)C[C@H]2C(=O)Nc2nc(Br)ccc2C)c2c(C)cc(-c3cnc(C)nc3)cc12 [Compound 433, (2S,4R)-1-(2-(3-acetyl-7-methyl-5-(2-methylpyrimidin-5-yl)-1H-indazol-1-yl)acetyl)-N-(6-bromo-3-methylpyridin-2-yl)-4-fluoro-4-methylpyrrolidine-2-carboxamide] | < 1000 nM |
| CC(=O)c1nn(CC(=O)N2[C@H](C(=O)NCc3cccc(Cl)c3F)C[C@@]3(Cc4nnc(C)o4)C[C@@H]23)c2c(C)cc(-c3cnc(C)nc3)cc12 [Compound 434, (1R,3S,5R)-2-(2-(3-acetyl-7-methyl-5-(2-methylpyrimidin-5-yl)-1H-indazol-1-yl)acetyl)-N-(3-chloro-2-fluorobenzyl)-5-((5-methyl-1,3,4-oxadiazol-2-yl)methyl)-2-azabicyclo[3.1.0]hexane-3-carboxamide] | < 1000 nM |
| CC(=O)c1nn(CC(=O)N2[C@H](C(=O)Nc3nc(C(F)(F)F)ccc3C)C[C@@]3(Cc4nnc(C)o4)C[C@@H]23)c2c(C)cc(-c3cnc(C)nc3)cc12 [Compound 435, (1R,3S,5R)-2-(2-(3-acetyl-7-methyl-5-(2-methylpyrimidin-5-yl)-1H-indazol-1-yl)acetyl)-5-((5-methyl-1,3,4-oxadiazol-2-yl)methyl)-N-(3-methyl-6-(trifluoromethyl)pyridin-2-yl)-2-azabicyclo[3.1.0]hexane-3-carboxamide] | < 1000 nM |
| Cc1ncc(-c2cc3c(C(N)=O)nn(CC(=O)N4C[C@H]5C[C@H]5[C@H]4C(=O)Nc4nc(Br)ccc4C)c3c(C)n2)cn1 [Compound 436, 1-(2-((1R,25,5S)-2-((6-bromo-3-methylpyridin-2-yl)carbamoyl)-3-azabicyclo[3.1.0]hexan-3-yl)-2-oxoethyl)-7-methyl-5-(2-methylpyrimidin-5-yl)-1H-pyrazolo[3,4-c]pyridine-3-carboxamide] | < 1000 nM |
| CSCc1cc(F)c(Br)nc1NC(=O)[C@@H]1C[C@@]2(C)C[C@H]2N1C(=O)Cn1nc(C(C)=O)c2cc(-c3cnc(C)nc3)ccc21 [Compound 438, (1R,5R)-2-(2-(3-Acetyl-5-(2-methylpyrimidin-5-yl)-1H-indazol-1-yl)acetyl)-N-(6-bromo-5-fluoro-3-((methylthio)methyl)pyridin-2-yl)-5-methyl-2-azabicyclo[3.1.0]hexane-3-carboxamide] | < 1000 nM |
| CC(=O)c1nn(CC(=O)N2C[C@H](F)C[C@H]2C(=O)Nc2cccc(I)n2)c2ccc(-c3cnc(C)nc3)cc12 [Compound 439, (2S,4R)-1-(2-(3-acetyl-5-(2-methylpyrimidin-5-yl)-1H-indazol-1-yl)acetyl)-4-fluoro-N-(6-iodopyridin-2-yl)pyrrolidine-2-carboxamide] | < 1000 nM |
| CC(=O)c1nn(CC(=O)N2C[C@H](F)C[C@H]2C(=O)Nc2ccccn2)c2ccc(-c3cnc(C)nc3)cc12 [Compound 440, (2S,4R)-1-(2-(3-acetyl-5-(2-methylpyrimidin-5-yl)-1H-indazol-1-yl)acetyl)-4-fluoro-N-(pyridin-2-yl)pyrrolidine-2-carboxamide] | < 1000 nM |
| CC(=O)c1nn(CC(=O)N2[C@H](C(=O)Nc3nc(Br)ccc3C)C[C@@]3(CNc4ccn(CC(F)(F)F)n4)C[C@@H]23)c2c(C)cc(-c3cnc(C)nc3)cc12 [Compound 441, (1R,3S,5R)-2-(2-(3-acetyl-7-methyl-5-(2-methylpyrimidin-5-yl)-1H-indazol-1-yl)acetyl)-N-(6-bromo-3-methylpyridin-2-yl)-5-(((1-(2,2,2-trifluoroethyl)-1H-pyrazol-3-yl)amino)methyl)-2-azabicyclo[3.1.0]hexane-3-carboxamide] | < 1000 nM |
